From patent publication US20040029938A1, “Medicaments” (priority 2000, published 2004) come the findings set out here.

This experiment concerns inducible nitric oxide synthase (INOS). The experiment can be described thus: LPS-induced INOS activity in J774 cells (DAF-2 fluorescence). Particulars: pre-treatment 6 hours before and 24 hours after LPS (1 μg/ml), sub-nanomolar-nanomolar concentrations, FIG. 1. It counts as cell-based, mouse. As to the method:
In this assay system, lipopolysaccharide (LPS) was used to induce the expression of INOS in the mouse macrophage cell line, J774. […] This reduction in INOS activity correlated with a reduction in LPS-induced INOS mRNA expression.
Specifically, LPS-induced INOS activity was measured using the following assay conditions. J774 cells were seeded at a density of […] per well, in a black, clear-bottomed, 96 well plate, 24hours prior to use. The cell culture and the drug dilutions were carried out in complete media, which consisted of DMEM (Dulbecco's modification of Eagle's medium) containing foetal calf serum (10%), glutamine (2 mM), penicillin (100 μ/ml) and streptomycin (100 μg/ml). The J774 cells were pre-treated with the PPAR delta activators A and B, or vehicle, for 6 hours prior to, and for 24 hours subsequent to the addition of LPS (typically, a concentration of 1 μg/ml of LPS was used). Twenty-four hours after the addition of LPS, INOS activity was measured by the following method. […] After incubation at 37° C. for 3 hours, fluorescence from each well was measured at an excitation wavelength of 485 nm, and an emission wavelength of 530 nm. […]
LPS to induce INOS activity, in the presence and absence of PPAR delta activators, was then calculated. […]

As for `Cc1cc(SCc2sc(-c3ccc(C(F)(F)F)cc3)nc2C)ccc1OCC(=O)O` [Compound A, 2-{2-methyl-4-[({4-methyl-2-[4-(trifluoromethyl)phenyl]-1,3-thiazol-5-yl}methyl)sulfanyl]phenoxy}acetic acid], the “inhibition of LPS-induced INOS activity” value is reported as “marked inhibition”.

For the compound `Cc1cc(SCc2sc(-c3ccc(C(F)(F)F)c(F)c3)nc2C)ccc1OCC(=O)O` [Compound B, 2-{2-methyl-4-[({4-methyl-2-[3-fluoro-4-(trifluoromethyl)phenyl]-1,3-thiazol-5-yl}methyl)sulfanyl]phenoxy}acetic acid], the “inhibition of LPS-induced INOS activity” value is recorded as “marked inhibition”.
